ChEMBL document CHEMBL5120860, “Ansellone J, a Potent in Vitro and ex Vivo HIV-1 Latency Reversal Agent Isolated from a Phorbas sp. Marine Sponge” (J Nat Prod, 2022)

Columns and labels:
[1] = test system: Human immunodeficiency virus 1; test: Reversal of HIV-1 latency infected in GFP-fused human J-Lat 9.2 cells assessed as increase in GFP expression at 3 uM incubated for 24 hrs by flow cytometry analysis relative to control; type: functional
[2] = Inhibition of HIV-1 latency reversal in GFP-fused human J-lat 9.2 cells at 1 uM incubated for 24 hrs in presence of pan-PKC inhibitor Go 6983 by flow cytometry analysis relative to control; type: functional; conditions: Human immunodeficiency virus 1, J-Lat 9.2
[3] = Cytotoxicity against human CD4+ T cells derived from cARC-suppressed donors with HIV assessed as cell viability at 1 uM incubated for 24 hrs by trypan blue staining based analysis relative to control; type: toxicity, CD4+ve Th; conditions: primary CD4+ T cells from cART-suppressed donors with HIV, read-out: Activity
[4] = test system: Human immunodeficiency virus 1; test: Reversal of HIV-1 latency in human CD4+ T cells derived from cARC-suppressed donors with HIV assessed as increase in viral RNA copies measured per ml of supernatant at 1 uM incubated for 24 hrs by qRT-PCR analysis (reference value: 191 +/- 321); type: functional, CD4+ve Th
[5] = test system: Human immunodeficiency virus 1; test: Reversal of HIV-1 latency in human CD4+ T cells derived from cARC-suppressed donors with HIV assessed as fold increase in viral RNA copies measured per ml of supernatant at 1 uM incubated for 24 hrs by qRT-PCR analysis; type: functional, CD4+ve Th
[6] = test system: Human immunodeficiency virus 1; test: Reversal of HIV-1 latency infected in GFP-fused human J-Lat 9.2 cells assessed as increase in GFP expression at 10 uM incubated for 24 hrs by flow cytometry analysis relative to control; type: functional
[7] = test system: Human immunodeficiency virus 1; test: Reversal of HIV-1 latency infected in GFP-fused human J-Lat 9.2 cells assessed as increase in GFP expression at 30 uM incubated for 24 hrs by flow cytometry analysis relative to control; type: functional
[8] = Inhibition of HIV-1 latency reversal in GFP-fused human J-lat 9.2 cells at 10 uM incubated for 24 hrs in presence of pan-PKC inhibitor Go 6983 by flow cytometry analysis relative to control; type: functional; conditions: Human immunodeficiency virus 1, J-Lat 9.2
[9] = Cytotoxicity against human CD4+ T cells derived from cARC-suppressed donors with HIV assessed as cell viability at 10 uM incubated for 24 hrs by trypan blue staining based analysis relative to control; type: toxicity, CD4+ve Th; conditions: primary CD4+ T cells from cART-suppressed donors with HIV, read-out: Activity
[10] = test system: Human immunodeficiency virus 1; test: Reversal of HIV-1 latency in human CD4+ T cells derived from cARC-suppressed donors with HIV assessed as increase in viral RNA copies measured per ml of supernatant at 10 uM incubated for 24 hrs by qRT-PCR analysis (reference value: 191 +/- 321); type: functional, CD4+ve Th
[11] = test system: Human immunodeficiency virus 1; test: Reversal of HIV-1 latency in human CD4+ T cells derived from cARC-suppressed donors with HIV assessed as fold increase in viral RNA copies measured per ml of supernatant at 10 uM incubated for 24 hrs by qRT-PCR analysis; type: functional, CD4+ve Th
[12] = Inhibition of HIV-1 latency reversal in GFP-fused human J-lat 9.2 cells at 3 uM incubated for 24 hrs in presence of pan-PKC inhibitor Go 6983 by flow cytometry analysis relative to control; type: functional; conditions: Human immunodeficiency virus 1, J-Lat 9.2

Question: Which Activity [1] does the source give for `CC1=C[C@H]2O[C@@H]([C@@H]3[C@@]4(C)CCCC(C)(C)[C@@H]4C=C[C@@]3(C)O)C=C(CO)[C@H]2CC1=O` here?
Answer: 27.3%

Question: And the inhibition at 1 µM [2]?
Answer: > 95%

Question: And the viability at 24 h, 1 µM [3]?
Answer: 82.4%

Question: And the Activity [4]?
Answer: 519

Question: And the “fold change (FC)” value [5]?
Answer: 2.7

Question: With `CC(=O)O[C@@]12C[C@@H](C)[C@@]3(O)[C@@H](C=C(CO)C[C@]4(O)C(=O)C(C)=C[C@@H]34)[C@@H]1C2(C)C` [PROSTRATIN] as the compound, how does the Activity [6] read?
Answer: 11.1%

Question: What about the Activity [7] of the same compound?
Answer: 11.7%

Question: And the inhibition at 10 µM [8]?
Answer: > 90%

Question: And the viability at 24 h, 10 µM [9]?
Answer: 84%

Question: And the Activity [10]?
Answer: 685

Question: And the “fold change (FC)” value [11]?
Answer: 2.8

Question: For `CC(=O)O[C@H]1C[C@]2(C)c3cc(C)c(O)cc3C(C)=CC(=O)[C@@H]2[C@@]2(C)CCCC(C)(C)[C@H]12`, which Activity [6] is on record?
Answer: 36.8%

Question: What about the inhibition at 3 µM [12] of the same compound?
Answer: > 95%

Question: For `CC(=O)O[C@]1(C)C[C@@H](/C=C(\C)CCC=C(C)C)O[C@@]2(C=C(CO)[C@H]3CC(=O)C(C)=C[C@H]3O2)C1`, which Activity [7] is on record?
Answer: 26.2%

Question: And the inhibition at 10 µM [8]?
Answer: > 90%
